This passage reports inhibition results from PMC6934184, “Selective DNA-PKcs inhibition extends the therapeutic index of localized radiotherapy and chemotherapy” (The Journal of Clinical Investigation, 2019).

In the experiment the target is T1, KIT N822K (Homo sapiens, UniProt P10721, N822K).
T1 construct: purchased Thermo Fisher Scientific (Life Technologies) SelectScreen
In words: SelectScreen LanthaScreen. Particulars: read-out: % displacement. The format is binding. Here is the method: The in vitro kinase selectivity of NU5455 was determined using the SelectScreen Broad Assay Panel (Thermo Fisher Scientific) involving activity and binding assays (Supplemental Table 1). […] Class IA PI3Ks were measured using the p85α subunit.
Kinase [ATP] % Assay Kinase [ATP] % Assay Kinase [ATP] % Assay Kinase [ATP] % Assay […]
FLT3 Km app 9.1 Z HIPK1 (Myak) Km app 2.8 Z KIT N822K n/a -0.2 L EPHB4 Km app -5.3 Z […]
SGK (SGK1) Km app 8.5 Z MAP4K2 (GCK) Km app 2.7 Z TLK2 n/a -0.3 L STK38 (NDR) n/a -5.9 L
MERTK (cMER) Km app 8.3 Z CDK2/cyclin A Km app 2.7 Z TGFBR1 (ALK5) n/a -0.4 L MATK (HYL) Km app -6.3 Z
FYN Km app 8.3 Z EPHA1 Km app 2.7 Z CLK3 Km app -0.5 Z ABL1 E255K Km app -6.6 Z
TEC n/a 8.1 L CDK2/cyclin E1 n/a 2.7 L MAP3K14 (NIK) n/a -0.5 L STK17A (DRAK1) n/a -6.6 L
KIT V654A n/a 8.1 L TESK2 n/a 2.7 L AKT3 (PKB gamma) Km app -0.5 Z JAK2 JH1 JH2 Km app -6.7 Z
ROS1 Km app 8.0 Z SPHK1 Km app 2.7 A MAP3K9 (MLK1) Km app -0.5 Z PRKACB (PRKAC beta) n/a -6.8 L
FGFR3 K650E Km app 7.9 Z AMPK A2/B1/G1 Km app 2.6 Z IKBKB (IKK beta) Km app -0.6 Z PDGFRA (PDGFR alpha) Km app -6.8 Z
RAF1 (cRAF) Y340D Y341D 100 7.9 Z DYRK3 Km app 2.6 Z CAMK2A (CaMKII alpha) Km app -0.6 Z NEK9 Km app -7.2 Z
PI4KA (PI4K alpha) 10 7.8 A CSNK1D (CK1 delta) Km app 2.6 Z PRKCB1 (PKC beta I) Km app -0.7 Z PDK1 Km app -7.3 Z
HIPK2 Km app 7.8 Z ACVR2A n/a 2.5 L TTK n/a -0.7 L RPS6KB1 (p70S6K) Km app -7.8 Z […]

Molecules are shown by their SMILES.

T1 sequence (P10721 26-976 N822K): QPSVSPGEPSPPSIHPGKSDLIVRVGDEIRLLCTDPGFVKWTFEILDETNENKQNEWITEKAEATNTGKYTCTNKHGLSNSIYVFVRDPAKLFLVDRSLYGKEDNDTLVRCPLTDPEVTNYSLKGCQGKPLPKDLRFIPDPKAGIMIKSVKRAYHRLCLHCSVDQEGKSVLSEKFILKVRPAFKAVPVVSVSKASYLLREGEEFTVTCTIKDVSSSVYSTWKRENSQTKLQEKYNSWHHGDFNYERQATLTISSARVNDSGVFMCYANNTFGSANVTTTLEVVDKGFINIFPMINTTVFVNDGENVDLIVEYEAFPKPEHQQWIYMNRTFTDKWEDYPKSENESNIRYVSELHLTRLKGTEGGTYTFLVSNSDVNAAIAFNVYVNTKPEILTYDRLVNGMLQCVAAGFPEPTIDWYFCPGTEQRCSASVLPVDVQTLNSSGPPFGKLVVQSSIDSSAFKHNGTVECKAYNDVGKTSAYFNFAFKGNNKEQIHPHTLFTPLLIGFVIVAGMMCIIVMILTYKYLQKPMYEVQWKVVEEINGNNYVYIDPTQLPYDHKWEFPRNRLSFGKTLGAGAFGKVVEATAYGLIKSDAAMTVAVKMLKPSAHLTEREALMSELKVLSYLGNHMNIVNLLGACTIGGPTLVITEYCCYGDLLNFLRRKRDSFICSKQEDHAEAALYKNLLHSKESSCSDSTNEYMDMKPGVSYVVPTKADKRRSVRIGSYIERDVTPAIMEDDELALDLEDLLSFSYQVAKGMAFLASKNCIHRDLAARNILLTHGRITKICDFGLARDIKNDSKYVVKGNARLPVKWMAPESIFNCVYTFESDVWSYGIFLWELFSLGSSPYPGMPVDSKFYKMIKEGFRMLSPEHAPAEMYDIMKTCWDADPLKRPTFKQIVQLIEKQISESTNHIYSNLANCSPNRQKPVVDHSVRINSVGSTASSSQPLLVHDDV

In the case of `CN(C(=O)CN1CCOCC1)c1ccc2sc3c(-c4cccc5c(=O)cc(N6CC7CCC(C6)O7)oc45)cccc3c2c1` [NU5455], the inhibition at 1 µM is -0.2%.
